One data set deals with T1, CYP26 (Homo sapiens, UniProt O43174).
T1 sequence (O43174 1-497): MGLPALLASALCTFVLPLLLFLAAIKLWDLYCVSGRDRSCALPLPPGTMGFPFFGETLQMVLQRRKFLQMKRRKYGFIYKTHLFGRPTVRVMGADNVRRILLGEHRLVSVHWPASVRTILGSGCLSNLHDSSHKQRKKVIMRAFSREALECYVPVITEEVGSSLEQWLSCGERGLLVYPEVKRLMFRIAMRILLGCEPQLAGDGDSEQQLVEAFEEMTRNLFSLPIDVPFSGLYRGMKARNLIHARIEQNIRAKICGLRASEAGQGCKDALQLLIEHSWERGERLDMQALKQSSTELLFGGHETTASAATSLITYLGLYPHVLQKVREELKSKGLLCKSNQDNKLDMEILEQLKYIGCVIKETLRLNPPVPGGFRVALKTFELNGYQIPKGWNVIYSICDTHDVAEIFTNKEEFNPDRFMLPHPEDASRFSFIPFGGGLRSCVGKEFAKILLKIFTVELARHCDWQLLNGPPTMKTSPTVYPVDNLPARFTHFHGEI
To be noted: human recombinant enzyme; read-out: Km reported for the human recombinant enzyme; cited from earlier work.

Substrate in data set [1]: CC1=C(/C=C/C(C)=C/C=C/C(C)=C/C(=O)O)C(C)(C)CCC1
Nature of the data set: cells, lysate or membranes named. Conditions: other: induced mouse microsomes; pH 7.4.

As a reminder, the Km is the substrate concentration at which the rate is half of its maximum.

Turning to `CC1=C(/C=C/C(C)=C/C=C/C(C)=C/C(=O)O)C(C)(C)CCC1` [ATRA, all-trans retinoic acid], the Km on CYP26 was about 0.01 µM.

B1: CYP26 (Mus musculus) (protein)
chain: MGLPALLASALCTFVLPLLLFLAALKLWDLYCVSSRDRSCALPLPPGTMGFPFFGETLQMVLQRRKFLQMKRRKYGFIYKTHLFGRPTVRVMGADNVRRILLGEHRLVSVHWPASVRTILGAGCLSNLHDSSHKQRKKVIMQAFSREALQCYVLVIAEEVSSCLEQWLSCGERGLLVYPEVKRLMFRIAMRILLGCEPGPAGGGEDEQQLVEAFEEMTRNLFSLPIDVPFSGLYRGVKARNLIHARIEENIRAKIRRLQATEPDGGCKDALQLLIEHSWERGERLDMQALKQSSTELLFGGHETTASAATSLITYLGLYPHVLQKVREEIKSKGLLCKSNQDNKLDMETLEQLKYIGCVIKETLRLNPPVPGGFRVALKTFELNGYQIPKGWNVIYSICDTHDVADIFTNKEEFNPDRFIVPHPEDASRFSFIPFGGGLRSCVGKEFAKILLKIFTVELARHCDWQLLNGPPTMKTSPTVYPVDNLPARFTYFQGDI
Consider B1, for which, in data set [1], the Km is 0.004 µM.

The values above are taken from patent US10414760B2, “Cytochrome P450 inhibitors and uses thereof” (ANGION BIOMEDICA CORP., priority 2016, dated 2019).
